Data: ChEMBL document CHEMBL1201862, “PubChem BioAssay data set” (2004)
Calls of active or inactive are those of the source.

Experiments:
[1] = target: NAD-dependent protein deacylase sirtuin-5, mitochondrial (Homo sapiens, UniProt Q9NXA8); test: blockers of sirtuin-5 peptide desuccinylation – biochemical, fluorescence imaging, cherry-pick, set 6, dose response (AID 720597)
[2] = target: Voltage-dependent T-type calcium channel subunit alpha-1H (Homo sapiens, UniProt O95180); format: functional;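 also: channel activity triggered by adding a high calcium stimulation buffer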
Chain of Voltage-dependent T-type calcium channel subunit alpha-1H (O95180 whole entry): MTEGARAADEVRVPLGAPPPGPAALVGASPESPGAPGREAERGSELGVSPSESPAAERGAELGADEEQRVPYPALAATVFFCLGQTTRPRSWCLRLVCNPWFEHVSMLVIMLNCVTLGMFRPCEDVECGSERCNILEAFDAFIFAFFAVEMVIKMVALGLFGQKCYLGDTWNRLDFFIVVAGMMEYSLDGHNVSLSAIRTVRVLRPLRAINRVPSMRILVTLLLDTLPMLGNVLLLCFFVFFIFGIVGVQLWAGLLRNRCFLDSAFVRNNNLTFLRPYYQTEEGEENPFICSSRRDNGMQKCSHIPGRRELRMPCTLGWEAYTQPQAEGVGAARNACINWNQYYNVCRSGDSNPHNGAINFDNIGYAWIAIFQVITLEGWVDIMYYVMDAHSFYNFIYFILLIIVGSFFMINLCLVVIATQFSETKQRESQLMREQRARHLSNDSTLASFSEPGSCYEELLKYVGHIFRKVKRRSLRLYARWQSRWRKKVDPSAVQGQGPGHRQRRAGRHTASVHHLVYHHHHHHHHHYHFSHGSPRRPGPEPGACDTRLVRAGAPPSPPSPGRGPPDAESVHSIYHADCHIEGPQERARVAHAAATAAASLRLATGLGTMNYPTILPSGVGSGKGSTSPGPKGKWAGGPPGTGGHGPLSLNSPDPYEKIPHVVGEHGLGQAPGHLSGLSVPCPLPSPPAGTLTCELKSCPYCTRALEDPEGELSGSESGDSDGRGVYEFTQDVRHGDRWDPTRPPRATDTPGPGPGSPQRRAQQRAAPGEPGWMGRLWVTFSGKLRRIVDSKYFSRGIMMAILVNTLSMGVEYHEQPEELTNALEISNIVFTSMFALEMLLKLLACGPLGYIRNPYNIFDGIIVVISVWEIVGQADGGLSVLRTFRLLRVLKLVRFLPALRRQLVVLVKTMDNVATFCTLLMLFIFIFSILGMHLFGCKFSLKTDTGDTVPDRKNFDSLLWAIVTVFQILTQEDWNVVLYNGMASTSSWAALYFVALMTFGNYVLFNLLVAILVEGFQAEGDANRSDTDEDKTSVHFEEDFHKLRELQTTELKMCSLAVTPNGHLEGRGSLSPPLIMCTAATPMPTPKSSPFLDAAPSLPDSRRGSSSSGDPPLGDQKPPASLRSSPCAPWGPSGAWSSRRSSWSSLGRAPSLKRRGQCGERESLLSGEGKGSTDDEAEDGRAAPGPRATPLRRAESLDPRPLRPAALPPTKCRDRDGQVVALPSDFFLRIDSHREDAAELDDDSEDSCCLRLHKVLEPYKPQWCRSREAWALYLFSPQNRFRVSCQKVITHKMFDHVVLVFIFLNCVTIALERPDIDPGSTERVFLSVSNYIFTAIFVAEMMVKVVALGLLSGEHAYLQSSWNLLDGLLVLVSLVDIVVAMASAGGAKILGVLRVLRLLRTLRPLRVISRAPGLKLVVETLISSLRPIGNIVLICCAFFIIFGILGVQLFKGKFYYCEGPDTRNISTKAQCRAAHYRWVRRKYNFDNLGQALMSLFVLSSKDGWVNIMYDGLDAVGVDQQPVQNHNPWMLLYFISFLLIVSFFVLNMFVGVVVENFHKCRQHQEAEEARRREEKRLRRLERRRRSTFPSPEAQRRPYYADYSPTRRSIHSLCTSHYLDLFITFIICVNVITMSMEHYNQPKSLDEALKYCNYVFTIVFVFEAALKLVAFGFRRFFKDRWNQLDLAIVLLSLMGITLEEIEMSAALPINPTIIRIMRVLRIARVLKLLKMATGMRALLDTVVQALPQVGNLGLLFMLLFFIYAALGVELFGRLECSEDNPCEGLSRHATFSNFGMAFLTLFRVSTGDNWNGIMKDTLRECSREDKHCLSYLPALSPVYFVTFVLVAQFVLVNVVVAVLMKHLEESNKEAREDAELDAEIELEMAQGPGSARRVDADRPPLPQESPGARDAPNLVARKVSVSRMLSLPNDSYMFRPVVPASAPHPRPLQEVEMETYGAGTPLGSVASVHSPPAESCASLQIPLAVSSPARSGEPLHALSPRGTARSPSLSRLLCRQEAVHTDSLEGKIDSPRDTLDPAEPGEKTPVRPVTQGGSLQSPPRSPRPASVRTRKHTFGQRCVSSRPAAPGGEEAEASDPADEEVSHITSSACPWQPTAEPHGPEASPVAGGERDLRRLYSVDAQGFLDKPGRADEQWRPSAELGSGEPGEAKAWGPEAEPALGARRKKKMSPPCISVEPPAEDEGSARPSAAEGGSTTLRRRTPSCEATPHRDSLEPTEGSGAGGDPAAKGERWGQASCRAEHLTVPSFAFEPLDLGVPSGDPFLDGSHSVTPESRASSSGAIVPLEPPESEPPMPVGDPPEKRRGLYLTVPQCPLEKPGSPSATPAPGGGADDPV

[3] = target: Ephrin type-A receptor 4 (Mus musculus, UniProt Q03137); test: EphA4 ligand-binding antagonists – biochemical, colorimetric, mouse EphA4, primary screen (AID 689); format: functional
Chain of Ephrin type-A receptor 4 (Q03137 whole entry): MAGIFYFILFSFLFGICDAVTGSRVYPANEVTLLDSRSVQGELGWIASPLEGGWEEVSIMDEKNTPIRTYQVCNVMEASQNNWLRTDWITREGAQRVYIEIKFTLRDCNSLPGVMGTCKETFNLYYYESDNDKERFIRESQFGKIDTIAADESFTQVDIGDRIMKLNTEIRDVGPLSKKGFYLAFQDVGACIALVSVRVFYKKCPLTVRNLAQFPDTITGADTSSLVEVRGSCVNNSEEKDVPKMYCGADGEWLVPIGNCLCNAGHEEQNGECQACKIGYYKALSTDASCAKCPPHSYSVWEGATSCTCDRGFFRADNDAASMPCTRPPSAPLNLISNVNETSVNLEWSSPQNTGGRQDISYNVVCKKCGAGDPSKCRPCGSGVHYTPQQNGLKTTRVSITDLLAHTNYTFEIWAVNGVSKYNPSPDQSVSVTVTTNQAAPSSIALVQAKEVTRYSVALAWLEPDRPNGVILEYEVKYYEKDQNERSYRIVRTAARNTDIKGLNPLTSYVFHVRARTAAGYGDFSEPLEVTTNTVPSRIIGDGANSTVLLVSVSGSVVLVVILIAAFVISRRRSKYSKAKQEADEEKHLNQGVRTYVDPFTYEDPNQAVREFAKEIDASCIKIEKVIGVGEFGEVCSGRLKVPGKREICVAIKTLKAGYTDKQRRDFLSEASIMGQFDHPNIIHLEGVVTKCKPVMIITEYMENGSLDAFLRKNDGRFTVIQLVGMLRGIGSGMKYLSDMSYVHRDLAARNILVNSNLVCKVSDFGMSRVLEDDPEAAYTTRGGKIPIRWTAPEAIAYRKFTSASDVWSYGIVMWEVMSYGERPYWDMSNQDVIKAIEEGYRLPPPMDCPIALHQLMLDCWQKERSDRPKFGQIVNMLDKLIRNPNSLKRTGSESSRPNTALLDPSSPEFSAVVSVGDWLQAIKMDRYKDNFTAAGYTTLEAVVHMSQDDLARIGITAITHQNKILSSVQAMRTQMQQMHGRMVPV

[4] = Luminescence Cell-Based Dose Confirmation to Identify Activators of 5'UTR Stem-Loop Driven Alpha-Synuclein mRNA Translation in H4 Neuroglioblastoma Cells. [Related pubchem assays: 1829 (Project Summary), 1814 (Primary HTS)]; format: functional
[5] = target: Cytochrome P450 2D6 (Homo sapiens, UniProt P10635);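 also: CYP2D6 member of a cytochrome P450 panel assay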
Chain of Cytochrome P450 2D6 (P10635 whole entry): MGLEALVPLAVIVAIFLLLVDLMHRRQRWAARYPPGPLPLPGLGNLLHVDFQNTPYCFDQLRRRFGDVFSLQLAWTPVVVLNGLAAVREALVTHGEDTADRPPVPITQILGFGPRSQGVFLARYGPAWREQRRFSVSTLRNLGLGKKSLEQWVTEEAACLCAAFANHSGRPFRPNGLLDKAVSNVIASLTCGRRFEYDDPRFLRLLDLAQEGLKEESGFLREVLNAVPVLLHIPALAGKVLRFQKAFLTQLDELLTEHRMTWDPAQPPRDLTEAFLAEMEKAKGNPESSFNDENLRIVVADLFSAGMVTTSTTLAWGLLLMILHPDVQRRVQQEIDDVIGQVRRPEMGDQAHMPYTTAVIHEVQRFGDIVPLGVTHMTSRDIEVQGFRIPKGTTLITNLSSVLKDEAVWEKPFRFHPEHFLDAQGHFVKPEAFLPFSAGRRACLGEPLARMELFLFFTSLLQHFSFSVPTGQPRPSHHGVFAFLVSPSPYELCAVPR

[6] = test system: H4; test: Luminescence Cell-Based Dose Response HTS to Identify Activators of 5'UTR Stem-Loop Driven Prion Protein mRNA Translation in H4 Neuroglioblastoma Cells. [Related pubchem assays: 1829 (Project Summary), 1814 (Primary HTS)]; format: functional; settings: Homo sapiens
[7] = Luminescence Cell-Based Dose Response to Identify Activators of Luciferase Translation or Activity in H4-C Neuroglioblastoma Cells. [Related pubchem assays: 1829 (Project Summary), 1814 (Primary HTS)]; format: functional
[8] = Luminescence Cell-Based Dose Response to Identify Activators of 5'UTR Stem-Loop Driven Prion Protein mRNA Translation in H4-C Neuroglioblastoma Cells. [Related pubchem assays: 1829 (Project Summary), 1814 (Primary HTS)]; format: functional
[9] = Luminescence Cell-Based Dose Response HTS to Identify Activators of Luciferase Translation or Activity in H4 […] Cells. [Related pubchem assays: 1829 (Project Summary), 1814 (Primary HTS)]; format: functional
[10] = Luminescence Cell-Based Dose Retest to Confirm Inhibitors of Cancer Stem Cells. [Related pubchem assays (depositor defined):AID2717, AID2721]; format: functional; settings: Homo sapiens
[11] = target: Glutathione-S-transferase (Schistosoma japonicum, UniProt Q26513); test: GST-antibody interaction or FRET quenching – biochemical, TR-FRET, artefact control for Vif-APOBEC3G degradation inhibitor project, dose response (AID 1117362); format: functional
Chain of Glutathione-S-transferase (Q26513 whole entry): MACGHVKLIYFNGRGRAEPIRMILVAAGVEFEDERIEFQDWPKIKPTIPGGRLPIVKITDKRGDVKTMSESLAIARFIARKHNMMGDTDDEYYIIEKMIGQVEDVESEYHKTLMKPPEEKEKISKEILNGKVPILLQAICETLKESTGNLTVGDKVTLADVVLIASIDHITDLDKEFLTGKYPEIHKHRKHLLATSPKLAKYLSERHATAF

[12] = inhibitors of non-replicating M. tuberculosis, dose response, luciferase, dry powder (AID 651619); format: functional
[13] = inhibitors of non-replicating M. tuberculosis, dose response, luciferase, dry powder (AID 651620); format: functional
[14] = test system: Streptococcus; test: GAS UMAA2166 growth inhibition – luminescence, BacTiterGlo, counter-screen for streptokinase expression inhibitor project, dose response (AID 1915); format: functional, organism-based;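 also: potency for reduction of bacterial viability or growth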
[15] = test system: H9c2; test: cells; format: functional, cell-based; settings: Rattus norvegicus, H9c2, Myocardium;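 also: confirmatory concentration-response retest of ultra-high-throughput screening hits for modulation of myocardial damage; cell death induced by hydrogen peroxide oxidative stress; compound pretreatment for 60 min then peroxide exposure for 2 h; potency is for protecting the cells against peroxide damage rather than for killing them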
[16] = test system: Streptococcus sp. 'group A'; test: Streptococcus pyogenes SK(-)GAS viability under kanamycin – luminescence, BacTiterGlo, confirmation, counter-screen for streptokinase expression inhibitor project, dose response (AID 1900); format: functional, organism-based
[17] = target: T1, Endoribonuclease toxin MazF (Escherichia coli K-12, UniProt P0AE70); test: activation of MazEF endoribonuclease cleavage – biochemical, fluorescence, single-stranded RNA substrate, uHTS hits, dose response (AID 588481); format: functional
T1 sequence (P0AE70 whole entry): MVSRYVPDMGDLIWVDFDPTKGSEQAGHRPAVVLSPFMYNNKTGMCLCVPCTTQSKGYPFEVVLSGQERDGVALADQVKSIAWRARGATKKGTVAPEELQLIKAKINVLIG

[18] = target: T1, Endoribonuclease toxin MazF; test: substrate-only fluorescence increase artefacts – biochemical, single-stranded RNase substrate, counter-screen for MazEF activator project, dose response (AID 588502); format: functional
[19] = target: T2, Streptokinase A (Streptococcus pyogenes serotype M1, UniProt P10520); test: viability-normalized secreted streptokinase activity reduction – plasminogen activation absorbance, OD405, dose response (AID 1914); format: functional, Streptococcus pyogenes M1 GAS;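 also: secreted streptokinase activity via plasminogen activation per viability signal from cell pellet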
T2 sequence (P10520 whole entry): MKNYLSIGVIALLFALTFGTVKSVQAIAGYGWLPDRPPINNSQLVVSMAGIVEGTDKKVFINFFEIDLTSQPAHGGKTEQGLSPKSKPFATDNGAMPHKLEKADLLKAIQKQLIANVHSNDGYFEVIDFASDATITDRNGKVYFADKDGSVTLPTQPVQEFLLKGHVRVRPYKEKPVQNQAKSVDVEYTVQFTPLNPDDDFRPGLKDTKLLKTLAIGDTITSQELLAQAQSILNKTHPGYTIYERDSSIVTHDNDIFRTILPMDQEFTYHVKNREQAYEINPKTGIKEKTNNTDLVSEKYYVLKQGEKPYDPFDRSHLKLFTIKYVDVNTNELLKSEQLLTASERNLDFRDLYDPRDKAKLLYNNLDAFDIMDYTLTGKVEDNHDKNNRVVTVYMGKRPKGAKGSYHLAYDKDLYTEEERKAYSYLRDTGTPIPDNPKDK

[20] = target: 14-3-3 protein gamma (Homo sapiens, UniProt P61981); test: modulators of 14-3-3 gamma client binding – dose response (AID 711); format: functional
Chain of 14-3-3 protein gamma (P61981 whole entry): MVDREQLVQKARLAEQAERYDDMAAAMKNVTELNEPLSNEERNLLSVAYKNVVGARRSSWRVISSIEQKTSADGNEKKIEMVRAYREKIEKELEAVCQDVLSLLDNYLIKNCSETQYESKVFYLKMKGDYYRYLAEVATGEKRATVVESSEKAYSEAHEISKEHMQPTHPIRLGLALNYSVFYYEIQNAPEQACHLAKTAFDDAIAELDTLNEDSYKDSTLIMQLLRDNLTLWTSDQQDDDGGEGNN

Chain of NAD-dependent protein deacylase sirtuin-5, mitochondrial (Q9NXA8 whole entry): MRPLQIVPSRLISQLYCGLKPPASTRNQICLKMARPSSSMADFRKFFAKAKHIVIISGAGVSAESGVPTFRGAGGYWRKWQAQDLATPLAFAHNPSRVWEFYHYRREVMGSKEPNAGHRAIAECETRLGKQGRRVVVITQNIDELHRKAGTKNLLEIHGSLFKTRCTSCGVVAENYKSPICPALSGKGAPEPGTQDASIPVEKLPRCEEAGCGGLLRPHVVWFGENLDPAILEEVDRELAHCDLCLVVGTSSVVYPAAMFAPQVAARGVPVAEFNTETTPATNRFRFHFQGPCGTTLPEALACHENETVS

## CC(C)CC#Cc1ccc([C@@H]2[C@@H](CO)N3C(=O)CN(C(=O)c4ccccn4)C[C@H]23)cc1
[1]
  AC50: 19.7 µM (active)

## COc1ccc(C(c2nnnn2Cc2cccs2)N2CCN(c3ccccc3F)CC2)cc1 (centres undefined)
[2]
  EC50: 18 µM (active)
[3]
  IC50: > 100 µM (not active)

## Cc1sc(NC(=O)C2CCCCC2)c(C#N)c1-c1ccccc1
[4]
  EC50: 0.174 µM (active)
[5]
  AC50: 7.08 µM (inconclusive)
[6]
  EC50: 7.76 µM (active)
[7]
  EC50: 0.375 µM (active)
[8]
  EC50: 0.689 µM (active)
[9]
  EC50: < 0.1 µM (active)
[10]
  AC50: 3.43 µM (active)

## C[C@H](CO)N1C[C@H](C)[C@@H](CN(C)C)Oc2ccc(NC(=O)Nc3ccc(F)cc3)cc2CC1=O
[1]
  AC50: > 30 µM (inactive)

## C=CCn1c(C)cc(-c2csc(N)n2)c1C
[11]
  IC50: 28.2 µM (active)

## Clc1ccc(-c2nnc(SCc3cn(Cc4ccccc4)nn3)o2)cc1
[12]
  IC90: 1 µM (active)
[12]; Mycobacterium tuberculosis
  IC90: 2 µM (active)
[13]
  IC90: 1 µM (active)
[13]; Mycobacterium tuberculosis
  IC90: 2 µM (active)

## CCn1c(O)c(/C=N/N=C/c2ccccc2)c2ccc(C3=NNC(=O)CC3)cc21
[14]
  EC50: 10.5 µM (active)
[3]
  IC50: > 100 µM (not active)
[15]
  IC50: > 79 µM (inactive)
[16]
  EC50: 6.42 µM (active)
[17]
  EC50: > 99 µM (inactive)
[18]
  EC50: > 99 µM (inactive)
[19]
  EC50: > 150 µM (not active)

## CN(C)S(=O)(=O)CC12CCC(CC1=O)C2(C)C (centres undefined)
[20]
  IC50: > 50 µM (not active)
